Columns and labels:
[1] = system: Drosophila; test: Ex vivo immunosuppressive activity in Drosophila larvae assessed as inhibition of IMD signaling pathway by beta-galactosidase reporter gene assay; format: functional, organism-based
[2] = Cytotoxicity against Drosophila S2 cells by MTT assay; format: cell-based; conditions: Drosophila melanogaster
[3] = system: HUVEC; test: Cytotoxicity against human HUVEC assessed as cell viability at 50 ug/ml; format: cell-based
[4] = system: HUVEC; test: Immunosuppressive activity in human HUVEC assessed as inhibition of TNF-alpha-induced IL8 production at 50 ug/mL after 12 hrs by ELISA relative to control; format: functional; set-up: scale not given: the % may be the effect or the level left

Structure (SMILES)	EC50 [1] [µM]	EC50 [2] [µM]	Activity [3]	Activity [4] [%]
C/C=C/[C@H]1C[C@@H](O)[C@@H](O)C1	100	> 350	–	–
C/C=C/[C@@H]1C[C@@H](O)[C@@H](O)C1	350	> 350	–	–
CCC[C@H]1C[C@@H](O)[C@@H](O)C1	100	> 350	–	–
CCCCCC[C@H]1C[C@@H](O)[C@@H](O)C1	110	110	–	–
CCOC(=O)/C=C/[C@H]1C[C@@H](O)[C@@H](O)C1	100	> 350	–	–
COC(=O)/C=C/[C@H]1C[C@@H](O)[C@@H](O)C1	> 350	> 350	–	–
CCCCCCOC(=O)/C=C/[C@H]1C[C@@H](O)[C@@H](O)C1	150	> 350	–	–
O=C(/C=C/[C@H]1C[C@@H](O)[C@@H](O)C1)Oc1ccccc1	100	> 200	–	–
O=C(O)/C=C/[C@H]1C[C@@H](O)[C@@H](O)C1	110	> 350	–	–
CN(C)C(=O)/C=C/[C@H]1C[C@@H](O)[C@@H](O)C1	120	> 250	–	–
O=C(/C=C/[C@H]1C[C@@H](O)[C@@H](O)C1)Nc1ccccc1	4.5	> 200	Non-toxic	70
NC(=O)/C=C/[C@H]1C[C@@H](O)[C@@H](O)C1	19	> 250	–	–
CNC(=O)/C=C/[C@H]1C[C@@H](O)[C@@H](O)C1	5.4	> 250	Non-toxic	70
CCNC(=O)/C=C/[C@H]1C[C@@H](O)[C@@H](O)C1	250	> 250	–	–
CCCCNC(=O)/C=C/[C@H]1C[C@@H](O)[C@@H](O)C1	> 250	> 250	–	–
O=C(/C=C/[C@H]1C[C@@H](O)[C@@H](O)C1)NC1CC1	240	> 250	–	–
O=C(/C=C/[C@H]1C[C@@H](O)[C@@H](O)C1)NO	13	> 250	–	–
O=C(/C=C/[C@H]1C[C@@H](O)[C@@H](O)C1)N1CCCCC1	180	> 250	–	–

Structure (SMILES)	EC50 [1] [µM]	EC50 [2] [µM]	Activity [3]	Activity [4] [%]
O=C(/C=C/[C@H]1C[C@@H](O)[C@@H](O)C1)Nc1ccc(Cl)cc1	> 180	> 180	–	–
O=C(/C=C/[C@H]1C[C@@H](O)[C@@H](O)C1)Nc1ccc(Cl)c(Cl)c1	56	> 160	–	–
O=C(/C=C/[C@H]1C[C@@H](O)[C@@H](O)C1)Nc1ccc(F)cc1	> 180	> 180	–	–
O=C(/C=C/[C@H]1C[C@@H](O)[C@@H](O)C1)Nc1ccc(C(F)(F)F)cc1	> 160	> 160	–	–
Cc1ccc(NC(=O)/C=C/[C@H]2C[C@@H](O)[C@@H](O)C2)cc1	190	> 190	–	–
COc1ccc(NC(=O)/C=C/[C@H]2C[C@@H](O)[C@@H](O)C2)cc1	3.1	> 180	Toxic	–
CC(C)(C)c1ccc(NC(=O)/C=C/[C@H]2C[C@@H](O)[C@@H](O)C2)cc1	4.4	> 180	Toxic	–
CC(=O)c1ccc(NC(=O)/C=C/[C@H]2C[C@@H](O)[C@@H](O)C2)cc1	> 180	> 180	–	–
O=C(/C=C/[C@H]1C[C@@H](O)[C@@H](O)C1)Nc1ccc([N+](=O)[O-])cc1	> 170	> 170	–	–
CN(C)c1ccc(NC(=O)/C=C/[C@H]2C[C@@H](O)[C@@H](O)C2)cc1	19	> 170	–	–
O=C(/C=C/[C@H]1C[C@@H](O)[C@@H](O)C1)Nc1ccncc1	> 20	> 200	–	–
CNC(=O)/C=C/C(CCO)CCO	> 250	> 250	–	–
CNC(=O)CC[C@H]1C[C@@H](O)[C@@H](O)C1	15	> 250	–	–
CNC(=O)C[C@H]1C[C@@H](O)[C@@H](O)C1	55	> 250	–	–
CNC(=O)CCC[C@H]1C[C@@H](O)[C@@H](O)C1	8.4	> 250	Non-toxic	70
CNC(=O)CCCC[C@H]1C[C@@H](O)[C@@H](O)C1	> 250	> 250	–	–
CNS(=O)(=O)/C=C/[C@H]1C[C@@H](O)[C@@H](O)C1	4	> 250	Non-toxic	70

Source: ChEMBL document CHEMBL1759855, “Synthesis and innate immunosuppressive effect of 1,2-cyclopentanediol derivatives” (Eur J Med Chem, 2011)
